Assay results from patent publication US5502209A, “Benzopyrancarboxamide derivatives, salts thereof, process for the preparation of same and use thereof” (Sanwa Kagaku Kenkyusho Co., Ltd., priority 1994, dated 1996).
Where a name gives a salt, the structure may show the parent alone.

Tests used:
5-HT4 receptor [1] = details: known compound, as said in the art; cited from earlier work
5-HT4 receptor [2] = target: T1, 5-HT4 receptor (Rattus norvegicus, UniProt Q62758); assay: Agonisting action to 5-HT4 receptor: relaxation of carbachol-contracted muscular sample of mucous membrane of rat esophagus (Baxter et al.); format: cell-based; details: carbachol contraction, read-out: P EC50 (negative logarithm of concentration causing 50% relaxation) (converted)
T1 construct: a muscular sample of mucous membrane in esophgus exentrated from a rat; from tissue; host or cells: rat oesophagus, muscularis mucosae (isolated)
From the text: (Agonisting action to 5-HT4 receptor)
Pharmacol.", Vol. 343, page 439 (1991)!.
Namely, a relaxation of the Test and Control compounds in various concentration showing to carbachol contradiction of a muscular sample of mucous membrane in esophgus exentrated from a rat was checked to calculate a concentration causing 50% relaxation and compared with its negative logarithm (P EC50).

dopamine D2 receptor = details: rat, in vivo, po, 100 mg/kg
From the text: The compounds obtained by Examples as well as known compound (Metoclopramide) were selected as Test and Control Compounds, respectively. The compound was orally administered to rats to observe for 2 days general symptoms including catalepsy and blepharoptosis due to antagonistic action of the compound to dopamine D2 receptor.

T1 sequence (Q62758 whole entry): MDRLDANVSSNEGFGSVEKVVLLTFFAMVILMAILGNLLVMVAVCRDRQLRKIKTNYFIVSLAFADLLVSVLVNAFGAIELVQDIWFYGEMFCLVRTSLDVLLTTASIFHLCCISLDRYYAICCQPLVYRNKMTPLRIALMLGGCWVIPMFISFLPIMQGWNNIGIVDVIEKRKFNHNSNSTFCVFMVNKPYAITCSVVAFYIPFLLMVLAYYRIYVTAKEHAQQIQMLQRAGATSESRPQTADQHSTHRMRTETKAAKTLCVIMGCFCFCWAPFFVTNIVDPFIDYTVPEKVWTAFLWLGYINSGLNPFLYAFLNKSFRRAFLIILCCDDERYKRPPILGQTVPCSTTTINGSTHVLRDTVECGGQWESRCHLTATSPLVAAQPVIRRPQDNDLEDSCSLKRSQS

Structure (SMILES)	EC50 (5-HT4 receptor [2])	further results
COc1cc(N)c(Cl)cc1C(=O)NC1CCN(CCCOc2ccc(F)cc2)CC1OC (stereo not drawn) [Cisapride]		agonisting action to 5-HT4 receptor (5-HT4 receptor [1]): strong agonisting action to 5-HT4 receptor
Nc1c(Cl)cc(C(=O)NCCC23CCCN2CCC3)c2c1CCCO2 [Example 1, 5-Amino-N-2-(1-azabicyclo 3.3.0!octan-5-yl)ethyl!-6-chloro-3,4-dihydro-2H-1-benzopyran-8-carboxamide·1/2 fumarate]	0.00501 µM	
CC1CCc2c(N)c(Cl)cc(C(=O)NCCC34CCCN3CCC4)c2O1 (stereo not drawn) [Example 2, 5-Amino-N-2-(1-azabicyclo 3.3.0!octan-5-yl)ethyl!-6-chloro-3,4-dihydro-2-methyl-2H-1-benzopyran-8-carboxamide·1/2 fumarate]	0.02 µM	
Nc1c(Cl)cc(C(=O)NCCC23CCCN2CCC3)c2c1C=CCO2 [Example 3, 5-Amino-N-2-(1-azabicyclo 3.3.0!octan-5-yl)ethyl!-6-chloro-2H-1-benzopyran-8-carboxamide·1/2 fumarate]	0.0251 µM	
O=C(NCCC12CCCN1CCC2)c1cccc2c1OCCC2 [Example 4, N-2-(1-Azabicyclo 3.3.0!octan-5-yl)ethyl!-3,4-dihydro-2H-1-benzopyran-8-carboxamide·1/2 fumarate]	12.6 µM	
O=C(NCCC12CCCN1CCC2)c1ccc(Cl)c2c1OCCC2 [Example 5, N-2-(1-Azabicyclo 3.3.0!octan-5-yl)ethyl!-3,4-dihydro-5-chloro-2H-1-benzopyran-8-carboxamide· fumarate]	25.1 µM	
O=C(NCCC12CCCN1CCC2)c1cc(Cl)cc2c1OCCC2 [Example 6, N-2-(1-Azabicyclo 3.3.0!octan-5-yl)ethyl!-3,4-dihydro-6-chloro-2H-1-benzopyran-8-carboxamide·1/2 fumarate]	12.6 µM	
COc1cc2c(c(C(=O)NCCC34CCCN3CCC4)c1)OCCC2 [Example 7, N-2-(1-Azabicyclo 3.3.0!octan-5-yl)ethyl!-3,4-dihydro-6-methoxy-2H-1-benzopyran-8-carboxamide·1/2 fumarate]	25.1 µM	
Cc1ccc(C(=O)NCCC23CCCN2CCC3)c2c1CCCO2 [Example 8, N-2-(1-Azabicyclo 3.3.0!octan-5-yl)ethyl!-3,4-dihydro-5-methyl-2H-1-benzopyran-8-carboxamide·1/2 fumarate]	20 µM	
Cc1cc2c(c(C(=O)NCCC34CCCN3CCC4)c1)OCCC2 [Example 9, N-2-(1-Azabicyclo 3.3.0!octan-5-yl)ethyl!-3,4-dihydro-6-methyl-2H-1-benzopyran-8-carboxamide·1/2 fumarate]	15.8 µM	
CC(=O)Nc1c(Cl)cc(C(=O)NCCC23CCCN2CCC3)c2c1CCCO2 [Example 10, 5-Acetylamino-N-2-(1-azabicyclo 3.3.0!octan-5-yl)ethyl!-6-chloro-3,4-dihydro-2H-1-benzopyran-8-carboxamide· fumarate]	7.94 µM	
CCN(CC)CCNC(=O)c1cc(Cl)c(N)cc1OC [Metoclopramide, 4-amino-5-chloro-N-(2-diethylamino)ethyl!-2-methoxybenzamide]		influence to central nerve system due to anti-dopamine action (dopamine D2 receptor): somewhat remarkable influence was recognized
